Data from ChEMBL document CHEMBL3885861, “Open TG-GATES”.

Organism: Rattus norvegicus
Test: Open TG-GATES - Regimen: Single
Type: toxicity, organism-based, Sprague-Dawley
Design: regimen Single, gender Male, age 6 weeks
Conditions: in vivo, po, 40 mg/kg, route gavage, dose level Low; for APTT / Bas / Eos / Fbg / Hb / Ht / Lym / MCH / MCHC / MCV / Mono / Neu / PT / Plat / RBC / Ret / WBC: tissue Blood; for KIDNEY_L / KIDNEY_R / KIDNEY_TOTAL: tissue Kidney; for LIVER: tissue Liver; for A/G / ALP / ALT / AST / BUN / CRE / Ca / Cl / DBIL / GLC / IP / K / LDH / Na / PL / RALB / TBIL / TC / TG / TP / gamma-GTP: tissue Plasma

In the case of `Cc1cccc(C)c1OCC(C)N` (configuration not stated) [MEXILETINE], the TERMINAL_BW (3 h) is reported as 218.4 g, the APTT (3 h) is reported as 20.9 s and the Bas (3 h) is reported as 0%. The Eos (3 h) was 0.4%, the Fbg (3 h) was 302.8 mg/dL and the Hb (3 h) was 13.1 g/dL. The Ht (3 h) was 40.8%, the Lym (3 h) was 80.4% and the MCH (3 h) was 20.6 pg. The MCHC (3 h) was 32.1%, the MCV (3 h) was 64.2 fL and the Mono (3 h) was 2.2%. The Neu (3 h) was 16%, the PT (3 h) was 15.9 s and the Plat (3 h) was 119 x10_4/uL. For the same compound, the RBC (3 h) was 634.2 x10_4/ul, the Ret (3 h) was 7.8% and the WBC (3 h) was 92.2 x10_2/uL. For the same compound, the KIDNEY_L (3 h) was 1 g, the KIDNEY_R (3 h) was 1 g and the KIDNEY_TOTAL (3 h) was 1.9 g. It also gave an LIVER (3 h) of 10.2 g, an A/G (3 h) of 1.2 and an ALP (3 h) of 1641.6 IU/L. For the same compound, the ALT (3 h) was 51 IU/L, the AST (3 h) was 79.6 IU/L and the BUN (3 h) was 13.6 mg/dL. It also gave a CRE (3 h) of 0.2 mg/dL, a Ca (3 h) of 10.7 mg/dL and a Cl (3 h) of 105.6 meq/L. The DBIL (3 h) was 0 mg/dL, the GLC (3 h) was 188.8 mg/dL and the IP (3 h) was 8.8 mg/dL. It also gave a K (3 h) of 4 meq/L, an LDH (3 h) of 207.4 IU/L and a Na (3 h) of 142.4 meq/L. For the same compound, the PL (3 h) was 149.2 mg/dL, the RALB (3 h) was 3 g/dL and the TBIL (3 h) was 0.01 mg/dL. For the same compound, the TC (3 h) was 84.4 mg/dL, the TG (3 h) was 67.6 mg/dL and the TP (3 h) was 5.5 g/dL. The gamma-GTP (3 h) was 1.2 IU/L, the TERMINAL_BW (6 h) was 214 g and the APTT (6 h) was 23.3 s. The Bas (6 h) was 0%, the Eos (6 h) was 0.8% and the Fbg (6 h) was 314 mg/dL. It also gave a Hb (6 h) of 13.5 g/dL, a Ht (6 h) of 40.8% and a Lym (6 h) of 83.6%. For the same compound, the MCH (6 h) was 20.9 pg, the MCHC (6 h) was 33.2% and the MCV (6 h) was 63 fL. It also gave a Mono (6 h) of 2.6%, a Neu (6 h) of 11.4% and a PT (6 h) of 16 s. For the same compound, the Plat (6 h) was 118.1 x10_4/uL, the RBC (6 h) was 647.4 x10_4/ul and the Ret (6 h) was 7.2%. The WBC (6 h) was 88.1 x10_2/uL, the KIDNEY_L (6 h) was 0.9 g and the KIDNEY_R (6 h) was 0.9 g. It also gave a KIDNEY_TOTAL (6 h) of 1.8 g, an LIVER (6 h) of 9.2 g and an A/G (6 h) of 1.2. For the same compound, the ALP (6 h) was 1364.6 IU/L, the ALT (6 h) was 43 IU/L and the AST (6 h) was 72.8 IU/L. For the same compound, the BUN (6 h) was 10.4 mg/dL, the CRE (6 h) was 0.2 mg/dL and the Ca (6 h) was 10.6 mg/dL. The Cl (6 h) was 105.6 meq/L, the DBIL (6 h) was 0 mg/dL and the GLC (6 h) was 180.8 mg/dL. The IP (6 h) was 8.5 mg/dL, the K (6 h) was 4.2 meq/L and the LDH (6 h) was 153.4 IU/L. For the same compound, the Na (6 h) was 141 meq/L, the PL (6 h) was 128.8 mg/dL and the RALB (6 h) was 3 g/dL. It also gave a TBIL (6 h) of 0.022 mg/dL, a TC (6 h) of 69 mg/dL and a TG (6 h) of 68 mg/dL. It also gave a TP (6 h) of 5.5 g/dL, a gamma-GTP (6 h) of 1.4 IU/L and a TERMINAL_BW (9 h) of 217.2 g. For the same compound, the APTT (9 h) was 22.4 s, the Bas (9 h) was 0% and the Eos (9 h) was 0.6%. It also gave a Fbg (9 h) of 293.8 mg/dL, a Hb (9 h) of 12.7 g/dL and a Ht (9 h) of 39.7%. It also gave a Lym (9 h) of 73.6%, an MCH (9 h) of 20.3 pg and an MCHC (9 h) of 32%. The MCV (9 h) was 63.6 fL, the Mono (9 h) was 2.6% and the Neu (9 h) was 22%. The PT (9 h) was 16.2 s, the Plat (9 h) was 106.8 x10_4/uL and the RBC (9 h) was 624.6 x10_4/ul. It also gave a Ret (9 h) of 8.1%, a WBC (9 h) of 122.3 x10_2/uL and a KIDNEY_L (9 h) of 0.9 g. It also gave a KIDNEY_R (9 h) of 0.9 g, a KIDNEY_TOTAL (9 h) of 1.9 g and an LIVER (9 h) of 9.3 g. For the same compound, the A/G (9 h) was 1.2, the ALP (9 h) was 1650.8 IU/L and the ALT (9 h) was 40.2 IU/L. The AST (9 h) was 65.2 IU/L, the BUN (9 h) was 11.6 mg/dL and the CRE (9 h) was 0.2 mg/dL. The Ca (9 h) was 10.4 mg/dL, the Cl (9 h) was 106.2 meq/L and the DBIL (9 h) was 0.002 mg/dL. The GLC (9 h) was 192.2 mg/dL, the IP (9 h) was 9.6 mg/dL and the K (9 h) was 4.2 meq/L. It also gave an LDH (9 h) of 127.2 IU/L, a Na (9 h) of 140.6 meq/L and a PL (9 h) of 129.6 mg/dL. The RALB (9 h) was 3 g/dL, the TBIL (9 h) was 0.022 mg/dL and the TC (9 h) was 71.4 mg/dL. The TG (9 h) was 77 mg/dL, the TP (9 h) was 5.5 g/dL and the gamma-GTP (9 h) was 1.2 IU/L. It also gave a TERMINAL_BW (24 h) of 232.2 g, an APTT (24 h) of 20.7 s and a Bas (24 h) of 0%. For the same compound, the Eos (24 h) was 1.4%, the Fbg (24 h) was 297.2 mg/dL and the Hb (24 h) was 12.3 g/dL. The Ht (24 h) was 38.5%, the Lym (24 h) was 80.2% and the MCH (24 h) was 19.9 pg. The MCHC (24 h) was 31.9%, the MCV (24 h) was 62.6 fL and the Mono (24 h) was 2.6%. It also gave a Neu (24 h) of 16%, a PT (24 h) of 16.5 s and a Plat (24 h) of 114.4 x10_4/uL. For the same compound, the RBC (24 h) was 616.2 x10_4/ul, the Ret (24 h) was 7.5% and the WBC (24 h) was 87.8 x10_2/uL. It also gave a KIDNEY_L (24 h) of 1 g, a KIDNEY_R (24 h) of 1 g and a KIDNEY_TOTAL (24 h) of 2 g. It also gave an LIVER (24 h) of 10.5 g, an A/G (24 h) of 1.2 and an ALP (24 h) of 1448.8 IU/L. The ALT (24 h) was 44.6 IU/L, the AST (24 h) was 73.4 IU/L and the BUN (24 h) was 15.8 mg/dL. The CRE (24 h) was 0.2 mg/dL, the Ca (24 h) was 10.8 mg/dL and the Cl (24 h) was 105.6 meq/L. The DBIL (24 h) was 0 mg/dL, the GLC (24 h) was 184.2 mg/dL and the IP (24 h) was 7.6 mg/dL. The K (24 h) was 4.1 meq/L, the LDH (24 h) was 158.6 IU/L and the Na (24 h) was 141.8 meq/L. It also gave a PL (24 h) of 140 mg/dL, an RALB (24 h) of 3.1 g/dL and a TBIL (24 h) of 0.01 mg/dL. For the same compound, the TC (24 h) was 79 mg/dL, the TG (24 h) was 89.8 mg/dL and the TP (24 h) was 5.5 g/dL. The gamma-GTP (24 h) was 1.6 IU/L.
